How the values were obtained:
CaCo2 transport assay = format: in vitro ADME; details: human, Caco-2; 50 μM in donor compartment; read-out: Papp [cm/sec ± rel. SD]
Description: Performance of selected compounds in a CaCo2 assay: Caco-2 cell culture and transport experiments were performed according to Yee (Yee, S., Pharm. Res., 14(6): 763-766 (1997)), but slight modifications were introduced. The cultivation times were reduced from 21 to 10 days by increasing the sowing density from 6.3·10^4 to 1.65·10^5 cells per well. […] The initial concentration of the compounds in the donor compartment was 50 μM (in buffer with 1% ethanol or DMSO). Samples were taken from the acceptor side after 60, 120 and 180 min and from the donor side after 0 and 180 min. For glycoprotein P (P-gp) studies, bidirectional experiments were performed. The absorptive and secretory permeabilities (Papp (a-b) and Papp (b-a)) were determined. Thus, erythromycin was used as a substrate, and verapamil was used as an inhibitor of P-gp. Each experiment was performed in triplicate. The integrity of the monolayer was determined by means of TEER (transepithelial electric resistance) and the permeability for each assay was determined using Lucifer Yellow. All samples of the CaCo-2 transport experiments were analyzed by means of LC/MS/MS after dilution with buffer (1:1 with 2% acetic acid). The apparent permeability coefficient (Papp) was calculated by means of the formula given below, where dQ/dt represents the recovery rate of the mass in the acceptor compartment, A represents the surface area of the transwell membrane, and c0 represents the initial concentration in the donor compartment.

CYP2D6 = target: T1, CYP2D6 (Homo sapiens, UniProt P10635); assay: Inhibition of hepatic CYP enzymes: CYP2D6; format: biochemical; details: read-out: CYP2D6 IC50 (mean ± SD)
T1 construct: purchased Becton Dickinson GmbH (Heidelberg)
Excerpt: (§1) Drug interactions (inhibition of hepatic CYP enzymes): The inhibition of six human hepatic cytochrome P450 enzymes by selected compounds was examined by means of the kit supplied by Becton Dickinson GmbH (Heidelberg).

in vitro = details: rat, microsomes, pH 7.4
Description: The reaction is started by adding 20 μl of the compound to be tested in 20% AcCN to the microsome/buffer mixture preincubated at 37° C. After 0, 15, 30 and 60 minutes, 200 μl of sample solution is withdrawn and subjected to AcCN precipitation. The isolation of the compounds is effected by adding 200 μl of AcCN that contains the internal standard (1 μM) to 200 μl of sample solution and calibration standard. After shaking for 10 s and centrifugation at 4000 g, an aliquot of the supernatant is subjected to LC-MS/MS. Two controls are included: a positive control with 7-ethoxycoumarin as a reference to verify the microsomal enzyme activity, and a negative control in which microsomes are used that were heated for 25 minutes without a regenerating system, in order to ensure that the loss of substance is actually due to metabolization.
The amount of compound in a sample is expressed as the percent fraction of the compound remaining as compared to time t=0 (100%). The percent fraction is plotted versus time.

CYP2C9 = target: T2, CYP2C9 (Homo sapiens, UniProt P11712); assay: Inhibition of hepatic CYP enzymes: CYP2C9; format: biochemical; details: read-out: CYP2C9 IC50 (mean ± SD)
T2 construct: purchased Becton Dickinson GmbH (Heidelberg)
Excerpt: as §1

17β-HSD1 = target: T3, 17β-HSD1 (Homo sapiens, UniProt P14061); assay: Inhibition of 17β-HSD1 (estrone to estradiol, radio-HPLC); format: biochemical; details: for IC50: human placenta enzyme, 500 nM estrone, NADH 500 μM; for Selectivity IC50 (17β-HSD2)/IC50 (17β-HSD1): ratio of IC50 values
T3 construct: In both cases, human placenta served as the enzyme source; from tissue; host or cells: human placenta
T3 sequence (P14061 1-328): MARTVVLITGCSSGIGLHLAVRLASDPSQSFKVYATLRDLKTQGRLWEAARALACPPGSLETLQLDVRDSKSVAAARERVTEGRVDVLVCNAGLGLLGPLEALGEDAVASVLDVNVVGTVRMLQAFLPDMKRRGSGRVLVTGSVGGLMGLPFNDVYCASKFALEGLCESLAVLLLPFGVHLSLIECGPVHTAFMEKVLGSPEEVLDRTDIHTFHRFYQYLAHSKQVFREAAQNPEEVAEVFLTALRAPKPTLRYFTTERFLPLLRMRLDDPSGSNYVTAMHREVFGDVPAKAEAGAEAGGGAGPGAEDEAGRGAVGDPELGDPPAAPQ

CYP2C19 = target: T4, CYP2C19 (Homo sapiens, UniProt P33261); assay: Inhibition of hepatic CYP enzymes: CYP2C19; format: biochemical; details: read-out: CYP2C19 IC50 (mean ± SD)
T4 construct: purchased Becton Dickinson GmbH (Heidelberg)
Excerpt: as §1

CYP2B6 = target: T5, CYP2B6 (Homo sapiens, UniProt P20813); assay: Inhibition of hepatic CYP enzymes: CYP2B6; format: biochemical; details: read-out: CYP2B6 IC50 (mean ± SD)
T5 construct: purchased Becton Dickinson GmbH (Heidelberg)
T5 sequence (P20813 1-491): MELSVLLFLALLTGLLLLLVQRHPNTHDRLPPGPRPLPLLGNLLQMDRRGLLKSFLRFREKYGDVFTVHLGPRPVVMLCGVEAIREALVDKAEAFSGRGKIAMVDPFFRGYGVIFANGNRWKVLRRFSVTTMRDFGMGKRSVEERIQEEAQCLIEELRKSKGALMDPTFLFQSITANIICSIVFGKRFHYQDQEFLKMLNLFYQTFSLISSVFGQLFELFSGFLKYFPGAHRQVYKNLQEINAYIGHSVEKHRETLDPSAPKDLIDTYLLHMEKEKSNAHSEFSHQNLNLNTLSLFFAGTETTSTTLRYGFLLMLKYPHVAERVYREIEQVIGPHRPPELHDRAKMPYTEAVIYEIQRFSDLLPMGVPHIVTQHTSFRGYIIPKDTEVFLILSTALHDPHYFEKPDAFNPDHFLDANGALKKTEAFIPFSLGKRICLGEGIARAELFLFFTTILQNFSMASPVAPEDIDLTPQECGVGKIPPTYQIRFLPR
Excerpt: as §1

T4 sequence (P33261 whole entry): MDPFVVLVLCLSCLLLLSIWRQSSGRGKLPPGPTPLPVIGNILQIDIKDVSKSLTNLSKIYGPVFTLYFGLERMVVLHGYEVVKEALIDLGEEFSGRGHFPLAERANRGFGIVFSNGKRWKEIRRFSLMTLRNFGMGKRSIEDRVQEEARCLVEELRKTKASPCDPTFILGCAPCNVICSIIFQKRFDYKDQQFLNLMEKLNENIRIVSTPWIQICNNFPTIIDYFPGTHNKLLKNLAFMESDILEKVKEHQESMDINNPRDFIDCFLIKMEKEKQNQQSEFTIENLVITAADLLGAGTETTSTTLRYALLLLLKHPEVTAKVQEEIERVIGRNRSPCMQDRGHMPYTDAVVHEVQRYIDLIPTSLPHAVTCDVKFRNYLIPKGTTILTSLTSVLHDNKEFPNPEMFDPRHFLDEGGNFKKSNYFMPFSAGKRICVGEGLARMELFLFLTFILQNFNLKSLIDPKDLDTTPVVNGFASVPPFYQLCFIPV
T1 sequence (P10635 whole entry): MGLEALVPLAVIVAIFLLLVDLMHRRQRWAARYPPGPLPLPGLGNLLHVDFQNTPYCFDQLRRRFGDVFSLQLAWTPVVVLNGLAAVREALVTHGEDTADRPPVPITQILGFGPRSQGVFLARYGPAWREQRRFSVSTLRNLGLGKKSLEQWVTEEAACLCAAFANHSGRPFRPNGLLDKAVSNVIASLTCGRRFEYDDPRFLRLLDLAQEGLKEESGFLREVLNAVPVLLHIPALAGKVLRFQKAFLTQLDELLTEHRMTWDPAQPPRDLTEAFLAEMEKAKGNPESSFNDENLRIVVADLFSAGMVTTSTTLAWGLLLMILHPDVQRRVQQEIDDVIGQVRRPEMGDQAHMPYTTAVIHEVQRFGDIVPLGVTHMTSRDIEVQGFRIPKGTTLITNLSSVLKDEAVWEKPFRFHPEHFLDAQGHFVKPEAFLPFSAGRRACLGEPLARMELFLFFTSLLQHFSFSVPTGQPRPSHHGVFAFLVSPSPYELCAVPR
T2 sequence (P11712 whole entry): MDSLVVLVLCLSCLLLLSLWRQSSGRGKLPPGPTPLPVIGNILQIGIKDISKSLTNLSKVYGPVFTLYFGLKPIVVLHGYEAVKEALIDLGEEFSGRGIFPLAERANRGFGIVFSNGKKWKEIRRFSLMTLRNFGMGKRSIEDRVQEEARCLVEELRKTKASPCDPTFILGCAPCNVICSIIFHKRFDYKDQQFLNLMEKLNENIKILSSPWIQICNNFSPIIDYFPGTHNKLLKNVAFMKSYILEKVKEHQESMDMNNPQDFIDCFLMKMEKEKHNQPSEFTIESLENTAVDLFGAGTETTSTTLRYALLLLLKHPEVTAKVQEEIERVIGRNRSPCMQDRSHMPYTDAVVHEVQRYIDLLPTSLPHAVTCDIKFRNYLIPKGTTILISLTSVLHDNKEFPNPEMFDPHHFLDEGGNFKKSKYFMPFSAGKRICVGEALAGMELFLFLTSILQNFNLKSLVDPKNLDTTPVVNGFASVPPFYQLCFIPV

Molecule Oc1ccc(-c2ccsc2-c2cccc(O)c2)cc1 [Compound 28, 3-[3-(4-Hydroxyphenyl)-2-thienyl]phenol] has a Papp at 180 min, 50 μM (CaCo2 transport assay) of 11.5 ×10⁻⁶ cm/s, an IC50 (CYP2D6) of 6.99 ± 0.02 µM and a half-life (in vitro) of 10.6 min. For the same molecule, the IC50 (CYP2C9) was 2.98 ± 0.02 µM, the IC50 (17β-HSD1) was 3.4 µM and the “Selectivity IC50 (17β-HSD2)/IC50 (17β-HSD1)” value (17β-HSD1) was 0.5. For the same molecule, the IC50 (CYP2C19) was 3.37 ± 0.12 µM and the IC50 (CYP2B6) was 18.8 ± 2.05 µM.
For Oc1cccc(-c2ccc(-c3cccc(O)c3)cc2)c1 [Compound 42, [1,1′,4′,1″]Terphenyl-3,3′-diol], the IC50 (CYP2D6) was 22 ± 0.29 µM, the “Half life” value (in vitro) was 22.7 min and the IC50 (CYP2C9) was 1.94 ± 0.1 µM. The IC50 (17β-HSD1) was 0.11 µM, the “Selectivity IC50 (17β-HSD2)/IC50 (17β-HSD1)” value (17β-HSD1) was 21 and the IC50 (CYP2C19) was 4.2 ± 0.29 µM. It also gave an IC50 (CYP2B6) of 7.68 ± 0.92 µM.

Reference: patent publication US20110046147A1, “17BETA-HYDROXYSTEROID DEHYDROGENASE TYPE 1 INHIBITORS FOR THE TREATMENT OF HORMONE-RELATED DISEASES” (UNIVERSITAT DES SAARLANDES, priority 2007, published 2011)
